According to PubChem BioAssay AID2060617 (Molecular Pharmacology Branch, DTP, NCI, 2025):
Where “and” joins values, the source holds several entries; their conditions need not be identical. Equal entries are not always repeated.

Test system: 485368-065-R4-J2-PDC spheroids with HUVEC/MSC, viability
Test: Anticancer human tumor 485368-065-R4-J2-PDC patient-derived pancreatic carcinoma cell line growth inhibition [CLK]
Conditions: for viability, T/C: stronger effect = lower value
Source text: A high-throughput screen of multi-cell type tumor spheroids was designed to identify active combinations of […] and targeted small molecules. Complex spheroids include a stromal component modeled by human endothelial cells (HUVEC) and fibroblasts modeled by human mesenchymal stem cells (MSCs). The concentration ranges selected for each drug and investigational agent were based upon clinically achievable concentrations if the clinical Cmax of the agent was known.
Compounds. The drugs and investigational agents: cirtuvivint (SM08502; NSC835563), CC-671 (NSC850746), vemurafenib (NSC761431), tapotoclax (NSC804041), sotorasib (NSC818433), adagrasib (NSC831453), MRTX-1133 (NSC836407), BAY2416964 (NSC825713), copanlisib (NSC816437), inavolisib (NSC800729), abemaciclib (NSC768073), osimertinib (NSC779217), entinostat (NSC756642), eltanexor (KPT-8602, NSC794443), venetoclax (NSC766270), ceralasertib (NSC777638), bortezomib (NSC756655), olaparib (NSC753686), talazoparib (NSC767125), alisertib (NSC759677), peposertib (NSC802822), gemcitabine (NSC613327), 5-fluorouracil (NSC19893), SN-38 (NSC673596), oxaliplatin (NSC266046), paclitaxel (NSC125973), and doxorubicin (NSC123127), were obtained from the National Cancer Institute (NCI) Developmental Therapeutics Program Chemical Repository. The FDA-approved anticancer drug set is available from the Developmental Therapeutics Program at https://dtp.cancer.gov/organization/dscb/obtaining/available plates.htm. […] The stock solutions were prepared in dimethyl sulfoxide (DMSO, Sigma-Aldrich, St. Louis, MO, cat. D2650), except for the platinum complexes which were prepared in saline (Quality Biological, Gaithersburg, MD, cat. 114-055-101), at 800-fold the tested concentration and stored at -70 degrees C prior to their use. All drugs and investigational agents were tested over a range starting from a high concentration at or near the clinical Cmax and decreasing in half-log increments. If the clinical Cmax for an agent had not been determined, the highest concentration tested was 10 microM.
Cell Culture. All cells were maintained in an incubator at 37 degrees C and 5% CO2 with 95% humidity. The PDC lines were cultured according to standard operating procedures established by the NCI PDMR. Briefly, all PDCs were thawed and cultured in Matrigel-coated flasks prepared with a working solution of 1X Ham's F-12 nutrient mix, without supplementation (Invitrogen, Waltham, MA, cat. 11765054), 100 U/mL penicillin-streptomycin (Invitrogen, cat. 15140122), and 2.5% Matrigel (Corning Inc., Corning, NY, cat. 354248) for the first three passages. The 947758-054-R-J2-PDC line was cultured in 6B/Colon 1A media, which includes advanced DMEM/F-12 (Thermo Fisher Scientific, cat. 12634028), 10 mM HEPES (Thermo Fisher Scientific, cat. 15630080), 1X GlutaMAX supplement (Thermo Fisher Scientific, cat. 35050061), 0.1 mg/mL primocin (InvivoGen, cat. ant-pm-2), 10% defined fetal bovine serum, heat inactivated (HyClone Laboratories Inc., cat. SH30070.03HI), 1.25 mM N-Acetyl-L-cysteine (Sigma-Aldrich, cat. A9165), 10 mM nicotinamide (Sigma-Aldrich, cat. N0636), 1X B-27 supplement (Thermo Fisher Scientific, cat. 17504044), 1X N-2 supplement (Thermo Fisher Scientific, cat. 17502048), and 10 microM Y-27632 dihydrochloride (Tocris Bioscience, cat. 1254). The 876862-298-R-J1-PDC was cultured in 6E media, which includes all 6B/Colon 1A media components plus 50% L-WRN conditioned media (ATCC, cat. CRL-3276), 50 ng/mL recombinant human EGF recombinant protein (hEGF; Thermo Fisher Scientific, cat. PHG0311), 10 ng/mL recombinant human fibroblast growth factor 10 (hGFG-10; PeproTech, cat. 100-26), 1 ng/mL recombinant human fibroblast growth factor 2 (hFGF-2; PeproTech, cat. 100-18B), and 1 µM prostaglandin E2 (PGE2; Tocris, cat. 2296). The 227483-062-R1-J1-PDC line was cultured in Panc media, containing all 6E components except hFGF-2, with the addition of 500 nM SB-431542 (Selleckchem, cat. S1067) and 10 nM gastrin (Tocris, cat. 3006). […]

[1] = curve of first compound, second compound 0.0316 µM
[2] = curve of first compound, second compound 0.1 µM
[3] = curve of first compound, second compound 0.316 µM
[4] = curve of first compound, second compound 1 µM
[5] = curve of first compound, second compound 3.16 µM
[6] = curve of first compound, second compound 10 µM
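Note: spheroids exposed to compounds for seven days.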
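Throughout, for viability, T/C: 100% = DMSO vehicle control wells.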

## C=CC(=O)Nc1cc(Nc2nccc(-c3cn(C)c4ccccc34)n2)c(OC)cc1N(C)CCN(C)C + CNC(=O)c1ccc(Nc2nc(OC3CCCC3)c3c(-c4ccc5nc(C)oc5c4)c[nH]c3n2)c(OC)c1
[1]
  IC50: > 0.3 µM
[2]
  IC50: > 0.3 µM
[3]
  IC50: > 0.3 µM
[4]
  IC50: > 0.3 µM
[5]
  IC50: > 0.3 µM
[6]
  IC50: > 0.3 µM
Second compound 0.0316 µM, first compound 0.000949 µM
  viability, T/C: 84.6%
Second compound 0.0316 µM, first compound 0.003 µM
  viability, T/C: 90%
Second compound 0.0316 µM, first compound 0.00949 µM
  viability, T/C: 88.8%
Second compound 0.0316 µM, first compound 0.03 µM
  viability, T/C: 93.4%
Second compound 0.0316 µM, first compound 0.0949 µM
  viability, T/C: 101%
Second compound 0.0316 µM, first compound 0.3 µM
  viability, T/C: 87.4%
Second compound 0.1 µM, first compound 0.000949 µM
  viability, T/C: 90.1%
Second compound 0.1 µM, first compound 0.003 µM
  viability, T/C: 89%
Second compound 0.1 µM, first compound 0.00949 µM
  viability, T/C: 95.6%
Second compound 0.1 µM, first compound 0.03 µM
  viability, T/C: 90.1%
Second compound 0.1 µM, first compound 0.0949 µM
  viability, T/C: 92.2%
Second compound 0.1 µM, first compound 0.3 µM
  viability, T/C: 98.4%
Second compound 0.316 µM, first compound 0.000949 µM
  viability, T/C: 82%
Second compound 0.316 µM, first compound 0.003 µM
  viability, T/C: 85.1%
Second compound 0.316 µM, first compound 0.00949 µM
  viability, T/C: 81.6%
Second compound 0.316 µM, first compound 0.03 µM
  viability, T/C: 79.5%
Second compound 0.316 µM, first compound 0.0949 µM
  viability, T/C: 83%
Second compound 0.316 µM, first compound 0.3 µM
  viability, T/C: 78%
Second compound 1 µM, first compound 0.000949 µM
  viability, T/C: 78.4%
Second compound 1 µM, first compound 0.003 µM
  viability, T/C: 72.6%
Second compound 1 µM, first compound 0.00949 µM
  viability, T/C: 81%
Second compound 1 µM, first compound 0.03 µM
  viability, T/C: 79.4%
Second compound 1 µM, first compound 0.0949 µM
  viability, T/C: 73.5%
Second compound 1 µM, first compound 0.3 µM
  viability, T/C: 70.8%
Second compound 3.16 µM, first compound 0.000949 µM
  viability, T/C: 69.4%
Second compound 3.16 µM, first compound 0.003 µM
  viability, T/C: 70.9%
Second compound 3.16 µM, first compound 0.00949 µM
  viability, T/C: 66.6%
Second compound 3.16 µM, first compound 0.03 µM
  viability, T/C: 68.4%
Second compound 3.16 µM, first compound 0.0949 µM
  viability, T/C: 66.8%
Second compound 3.16 µM, first compound 0.3 µM
  viability, T/C: 68.7%
Second compound 10 µM, first compound 0.000949 µM
  viability, T/C: 66.5%
Second compound 10 µM, first compound 0.003 µM
  viability, T/C: 67.6%
Second compound 10 µM, first compound 0.00949 µM
  viability, T/C: 70.1%
Second compound 10 µM, first compound 0.03 µM
  viability, T/C: 67.3%
Second compound 10 µM, first compound 0.0949 µM
  viability, T/C: 68.9%
Second compound 10 µM, first compound 0.3 µM
  viability, T/C: 58.6%

## CC(C)CC(NC(=O)C(Cc1ccccc1)NC(=O)c1cnccn1)B(O)O (stereo unspecified)
Compound 0.000949 µM
  viability, T/C: 89.2% and 97.4%
Compound 0.003 µM
  viability, T/C: 109% and 134%
Compound 0.00949 µM
  viability, T/C: 31.1%
Compound 0.03 µM
  viability, T/C: 23.3% and 18.4%
Compound 0.0949 µM
  viability, T/C: 12.5% and 15.6%
Compound 0.3 µM
  viability, T/C: 5.93% and 5.56%
Curve of compound
  IC50: 0.00688 µM and 0.00733 µM

## CC(=O)O[C@H]1C(=O)[C@@]2(C)[C@H]([C@H](OC(=O)c3ccccc3)[C@]3(O)C[C@H](OC(=O)[C@H](O)[C@@H](NC(=O)c4ccccc4)c4ccccc4)C(C)=C1C3(C)C)[C@]1(OC(C)=O)CO[C@@H]1C[C@@H]2O + CN1CCN(c2cc(C(=O)Nc3cc4cc(-c5cnn(C)c5)ccc4cn3)ccn2)CC1
[1]
  IC50: < 0.0316 µM
[2]
  IC50: < 0.0316 µM
[3]
  IC50: < 0.0316 µM
[4]
  IC50: < 0.0316 µM
[5]
  IC50: < 0.0316 µM
[6]
  IC50: < 0.0316 µM
Second compound 0.0316 µM, first compound 0.0316 µM
  viability, T/C: 49.1%
Second compound 0.0316 µM, first compound 0.1 µM
  viability, T/C: 41.3%
Second compound 0.0316 µM, first compound 0.316 µM
  viability, T/C: 38.5%
Second compound 0.0316 µM, first compound 1 µM
  viability, T/C: 46.2%
Second compound 0.0316 µM, first compound 3.16 µM
  viability, T/C: 39.5%
Second compound 0.0316 µM, first compound 10 µM
  viability, T/C: 55.3%
Second compound 0.1 µM, first compound 0.0316 µM
  viability, T/C: 37.3%
Second compound 0.1 µM, first compound 0.1 µM
  viability, T/C: 39.4%
Second compound 0.1 µM, first compound 0.316 µM
  viability, T/C: 30.8%
Second compound 0.1 µM, first compound 1 µM
  viability, T/C: 36%
Second compound 0.1 µM, first compound 3.16 µM
  viability, T/C: 36.8%
Second compound 0.1 µM, first compound 10 µM
  viability, T/C: 45.2%
Second compound 0.316 µM, first compound 0.0316 µM
  viability, T/C: 30.7%
Second compound 0.316 µM, first compound 0.1 µM
  viability, T/C: 28.5%
Second compound 0.316 µM, first compound 0.316 µM
  viability, T/C: 28.2%
Second compound 0.316 µM, first compound 1 µM
  viability, T/C: 25.4%
Second compound 0.316 µM, first compound 3.16 µM
  viability, T/C: 28.7%
Second compound 0.316 µM, first compound 10 µM
  viability, T/C: 35.5%
Second compound 1 µM, first compound 0.0316 µM
  viability, T/C: 0.77%
Second compound 1 µM, first compound 0.1 µM
  viability, T/C: 0.76%
Second compound 1 µM, first compound 0.316 µM
  viability, T/C: 0.7%
Second compound 1 µM, first compound 1 µM
  viability, T/C: 1.78%
Second compound 1 µM, first compound 3.16 µM
  viability, T/C: 1%
Second compound 1 µM, first compound 10 µM
  viability, T/C: 1.89%
Second compound 3.16 µM, first compound 0.0316 µM
  viability, T/C: 2.34%
Second compound 3.16 µM, first compound 0.1 µM
  viability, T/C: 2.46%
Second compound 3.16 µM, first compound 0.316 µM
  viability, T/C: 1.31%
Second compound 3.16 µM, first compound 1 µM
  viability, T/C: 2.13%
Second compound 3.16 µM, first compound 3.16 µM
  viability, T/C: 1.56%
Second compound 3.16 µM, first compound 10 µM
  viability, T/C: 3.41%
Second compound 10 µM, first compound 0.0316 µM
  viability, T/C: 1.54%
Second compound 10 µM, first compound 0.1 µM
  viability, T/C: 2.06%
Second compound 10 µM, first compound 0.316 µM
  viability, T/C: 2.24%
Second compound 10 µM, first compound 1 µM
  viability, T/C: 1.65%
Second compound 10 µM, first compound 3.16 µM
  viability, T/C: 2.6%
Second compound 10 µM, first compound 10 µM
  viability, T/C: 1.89%
